According to US8829011B2 (Janssen Pharmaceutica NV, priority 2008, dated 2014):
Where a name gives a salt, the structure may show the parent alone.

Key:
[1] = target: T1, human recombinant 5-HT2C receptor (Homo sapiens, UniProt P28335); test: Affinity for 5-HT2C receptor binding sites (competitive radioligand binding, [3H]mesulergine); conditions: membranes of CHO with h5-HT2C, * = tested as hydrochloride salt
T1 construct: expressed in transfected cells; host or cells: CHO
T1 sequence (P28335 33-458): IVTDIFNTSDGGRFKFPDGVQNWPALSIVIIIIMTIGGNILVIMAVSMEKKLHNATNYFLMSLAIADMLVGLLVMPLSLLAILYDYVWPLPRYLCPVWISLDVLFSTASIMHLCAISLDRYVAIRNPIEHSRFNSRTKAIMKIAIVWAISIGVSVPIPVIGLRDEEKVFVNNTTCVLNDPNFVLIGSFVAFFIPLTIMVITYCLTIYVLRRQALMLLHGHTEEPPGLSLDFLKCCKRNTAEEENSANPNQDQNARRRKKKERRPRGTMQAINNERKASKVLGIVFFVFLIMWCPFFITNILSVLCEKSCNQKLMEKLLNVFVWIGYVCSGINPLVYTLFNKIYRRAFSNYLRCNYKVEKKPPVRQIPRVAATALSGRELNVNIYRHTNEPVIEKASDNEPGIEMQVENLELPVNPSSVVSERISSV
Procedure: (§1) Stock drug solutions (10 mM) were prepared in DMSO (the final assay concentration of DMSO not exceeding 0.4%). Drug dilutions were prepared in assay buffer.
(§2) Sigmoidal inhibition curves were generated and fitted by nonlinear regression analysis (GraphPad Prism).
(§3) 2. Affinity for 5HT2 Receptor Binding Sites
(§4) Receptor binding was performed using the human recombinant 5-HT2A (GB: X57830), 5-HT2B (GB: Z36748) and 5-HT2C (GB: M81778) receptors. The affinity of the compounds for the 3 different human 5-HT2 receptor subtypes was evaluated by competitive radioligand binding assays using [^3H]ketanserin (h5-HT2A) or [^3H]mesulergine (h5-HT2B and h5-HT2C). The assays were performed on membranes prepared from NIH3T3 stably transfected with h5-HT2A or CHO stably transfected with h5-HT2B and h5-HT2C.

[2] = target: T2, human recombinant 5-HT2B receptor (Homo sapiens, UniProt P41595); test: Affinity for 5-HT2B receptor binding sites (competitive radioligand binding, [3H]mesulergine); conditions: membranes of CHO with h5-HT2B, * = tested as hydrochloride salt
T2 construct: expressed in transfected cells; host or cells: CHO
T2 sequence (P41595 whole entry): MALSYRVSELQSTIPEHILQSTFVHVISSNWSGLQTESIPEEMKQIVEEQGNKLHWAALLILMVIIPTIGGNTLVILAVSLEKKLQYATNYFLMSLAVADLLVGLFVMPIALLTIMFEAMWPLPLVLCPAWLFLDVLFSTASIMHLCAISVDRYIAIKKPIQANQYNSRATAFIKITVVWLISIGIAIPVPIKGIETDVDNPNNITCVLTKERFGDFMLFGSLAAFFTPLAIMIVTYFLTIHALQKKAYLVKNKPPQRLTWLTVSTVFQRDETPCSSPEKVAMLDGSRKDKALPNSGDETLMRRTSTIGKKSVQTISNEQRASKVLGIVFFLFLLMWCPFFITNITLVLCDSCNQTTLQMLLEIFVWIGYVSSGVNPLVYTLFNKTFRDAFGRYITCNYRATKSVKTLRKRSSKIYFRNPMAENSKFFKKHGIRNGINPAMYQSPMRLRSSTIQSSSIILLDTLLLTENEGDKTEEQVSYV
Procedure: as §1, §2, §3, §4

[3] = target: T3, human recombinant 5-HT6 receptor (Homo sapiens, UniProt P50406); test: Affinity for 5-HT6 receptor binding sites (competitive radioligand binding, [3H]LSD); conditions: membranes of HEK-293 with h5-HT6, * = tested as hydrochloride salt
T3 construct: expressed in transfected cells; host or cells: HEK-293
T3 sequence (P50406 whole entry): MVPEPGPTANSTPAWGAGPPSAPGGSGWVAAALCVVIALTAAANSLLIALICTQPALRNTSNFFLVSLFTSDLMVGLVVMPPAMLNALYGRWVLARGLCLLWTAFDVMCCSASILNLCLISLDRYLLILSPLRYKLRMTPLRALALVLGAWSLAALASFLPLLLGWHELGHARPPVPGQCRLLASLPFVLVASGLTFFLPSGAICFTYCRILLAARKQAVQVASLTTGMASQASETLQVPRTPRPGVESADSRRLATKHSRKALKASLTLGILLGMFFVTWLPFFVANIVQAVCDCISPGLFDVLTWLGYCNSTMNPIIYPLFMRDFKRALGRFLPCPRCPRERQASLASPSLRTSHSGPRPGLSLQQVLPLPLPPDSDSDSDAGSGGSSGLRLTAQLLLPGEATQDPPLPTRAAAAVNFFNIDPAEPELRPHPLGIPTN
Procedure: as §1, §2
3. Affinity for 5-HT6 Receptor Binding Sites
Receptor binding was performed using the human recombinant 5-HT6 (GB: BC0794995) receptor. The affinity of the compounds for the human 5-HT6 receptor was evaluated by competitive radioligand binding assays using [^3H]LSD. The assays were performed on membranes prepared from HEK-293 stably transfected with h5-HT6. Non-specific binding was estimated in the presence of 1 μM clozapine.

[4] = target: T4, human recombinant 5-HT2A receptor (Homo sapiens, UniProt P28223); test: Affinity for 5-HT2A receptor binding sites (competitive radioligand binding, [3H]ketanserin); conditions: membranes of NIH3T3 with h5-HT2A, * = tested as hydrochloride salt
T4 construct: expressed in transfected cells; host or cells: NIH3T3
T4 sequence (P28223 whole entry): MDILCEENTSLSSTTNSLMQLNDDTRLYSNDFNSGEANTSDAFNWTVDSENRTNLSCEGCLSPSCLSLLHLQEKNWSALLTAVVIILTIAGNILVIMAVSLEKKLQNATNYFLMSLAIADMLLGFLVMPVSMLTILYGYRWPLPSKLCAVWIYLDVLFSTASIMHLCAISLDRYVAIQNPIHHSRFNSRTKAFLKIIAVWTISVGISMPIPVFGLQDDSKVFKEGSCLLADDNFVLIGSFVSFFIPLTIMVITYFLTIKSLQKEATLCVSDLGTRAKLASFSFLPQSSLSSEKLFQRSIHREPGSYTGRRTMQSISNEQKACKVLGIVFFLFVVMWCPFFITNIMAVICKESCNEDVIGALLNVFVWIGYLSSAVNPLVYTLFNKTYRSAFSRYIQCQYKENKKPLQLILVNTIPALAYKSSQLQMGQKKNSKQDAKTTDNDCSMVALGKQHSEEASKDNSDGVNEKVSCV
Procedure: as §1, §2, §3, §4

[5] = target: T5, rat 5-HT7a receptor (Rattus norvegicus, UniProt P32305); test: Affinity for 5-HT7 receptor binding sites (competition radioligand binding, [3H]5-CT); conditions: membranes of HEK-293 cells with rat 5-HT7a; 1 nM [3H]5-CT; * = tested as hydrochloride salt
T5 construct: expressed in transfected cells; host or cells: HEK-293
T5 sequence (P32305 whole entry): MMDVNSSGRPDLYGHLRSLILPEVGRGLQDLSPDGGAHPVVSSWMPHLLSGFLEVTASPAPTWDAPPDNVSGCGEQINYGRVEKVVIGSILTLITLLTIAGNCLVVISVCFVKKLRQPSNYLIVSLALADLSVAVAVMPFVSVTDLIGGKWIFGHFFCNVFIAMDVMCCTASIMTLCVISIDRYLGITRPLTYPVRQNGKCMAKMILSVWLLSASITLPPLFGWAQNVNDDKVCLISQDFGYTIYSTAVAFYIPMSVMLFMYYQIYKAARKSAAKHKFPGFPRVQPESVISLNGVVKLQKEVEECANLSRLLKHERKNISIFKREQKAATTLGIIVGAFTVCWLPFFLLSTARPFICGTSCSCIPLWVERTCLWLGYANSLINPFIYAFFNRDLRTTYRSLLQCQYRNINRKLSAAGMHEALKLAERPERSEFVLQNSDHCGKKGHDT
Procedure: as §1, §2
1. Affinity for 5-HT7 Receptor Binding Sites
The affinity of the compounds described in this invention for the 5-HT7 receptor binding site was evaluated by single competition radioligand binding assay. The assay was performed on membranes prepared from HEK-293 cells that had been subjected to stable transfection with the rat 5-HT7a receptor (GB: NM022938). Cells were scraped from the culture plates, suspended in Tris-HCl 50 mM pH 7.5 and collected through centrifugation (1000 rpm for 5 min). The cell pellets were homogenized (Polytron, 15 s, setting 5) in 50 mM Tris-HCl (pH 7.5), 5 mM EDTA. Following centrifugation (15,000 rpm for 25 min), membranes (135 μg protein/mL) were resuspended in the same buffer and incubated for 60 min at RT with 1 nM [^3H]5-CT in the presence of increasing concentration of test compounds. Nonspecific binding was defined in the presence of 10 μM 5-HT. Incubation was stopped by rapid filtration using the cell harvester (Packard). Radioactivity was counted in a TopCount-NXT (Packard). Experiments were conducted in triplicate.

Row | Ki [3] | Structure (SMILES) | Ki [1] | Ki [2] | Ki [4] | Ki [5]
1 | 28 nM | CCN(CC)c1nc2c(c(-c3ccc(OC)cc3)n1)CCNCC2 [Example 13, Diethyl-[4-(4-methoxy-phenyl)-6,7,8,9-tetrahydro-5H-pyrimido[4,5-d]azepin-2-yl]-amine hydrochloride] | 40 nM | 0.8 nM | 10 nM | 0.032 µM
2 | 127 nM | COc1ccc(-c2nc(N3CCCCC3C)nc3c2CCCNC3)cc1 (centres unmarked) [Example 5, 4-(4-Methoxy-phenyl)-2-(2-methyl-piperidin-1-yl)-6,7,8,9-tetrahydro-5H-pyrimido[4,5-c]azepine hydrochloride] | 1800 nM | 200 nM | 1500 nM | > 10 µM
3 |  | N#Cc1ccc(-c2nc(N3CCCCCC3)nc3c2CCN(Cc2ccccc2)C3)cc1 [Example 37, 4-(2-Azepan-1-yl-7-benzyl-5,6,7,8-tetrahydro-pyrido[3,4-d]pyrimidin-4-yl)-benzonitrile] | > 10000 nM | 1300 nM | 2400 nM | > 10 µM
4 |  | Fc1ccc(-c2nc(N3CCCCCC3)nc3c2CCN(Cc2ccccc2)C3)cc1 [Example 31, 2-Azepan-1-yl-7-benzyl-4-(4-fluoro-phenyl)-5,6,7,8-tetrahydro-pyrido[3,4-d]pyrimidine] | 3200 nM | 1600 nM | 230 nM | > 10 µM
5 | 1480 nM | CCN(CC)c1nc2c(c(-c3ccc(Cl)cc3)n1)CNCCC2 [Example 59, [4-(4-Chloro-phenyl)-6,7,8,9-tetrahydro-5H-1,3,6-triaza-benzocyclohepten-2-yl]-diethyl-amine hydrochloride] |  |  |  | > 10 µM
6 |  | CC1CCCN1c1nc2c(c(-c3ccc(Cl)cc3)n1)CCNCC2 (centres unmarked) [Example 54, 4-(4-Chloro-phenyl)-2-(2-methyl-pyrrolidin-1-yl)-6,7,8,9-tetrahydro-5H-pyrimido[4,5-d]azepine] | 89 nM | 5 nM | 30 nM | 0.37 µM
7 |  | CCN(CC)c1nc2c(c(-c3ccc(C#N)cc3)n1)CCN(Cc1ccccc1)C2 [Example 29, 4-(7-Benzyl-2-diethylamino-5,6,7,8-tetrahydro-pyrido[3,4-d]pyrimidin-4-yl)-benzonitrile] | > 10000 nM | 1100 nM | 650 nM | > 10 µM
8 |  | Cc1ccc(-c2nc(N3CCCCCC3)nc3c2CCNC3)cc1 [Example 34, 2-Azepan-1-yl-4-p-tolyl-5,6,7,8-tetrahydro-pyrido[3,4-d]pyrimidine] | 270 nM | 40 nM | 18 nM | 0.09 µM
9 |  | Fc1ccc(-c2nc(N3CCCC3)nc3c2CNCC3)cc1 [Example 41, 4-(4-Fluoro-phenyl)-2-pyrrolidin-1-yl-5,6,7,8-tetrahydro-pyrido[4,3-d]pyrimidine hydrochloride] | 940 nM | 750 nM | 25 nM | > 10 µM
10 |  | COc1ccc(-c2nc(N3CCCCCC3)nc3c2CCN(Cc2ccccc2)C3)cc1 [Example 35, 2-Azepan-1-yl-7-benzyl-4-(4-methoxy-phenyl)-5,6,7,8-tetrahydro-pyrido[3,4-d]pyrimidine] | > 10000 nM | 700 nM | > 10000 nM | > 10 µM
11 |  | CCN(C)c1nc2c(c(-c3ccc(F)cc3)n1)CNCC2 [Example 44, Ethyl-[4-(4-fluoro-phenyl)-5,6,7,8-tetrahydro-pyrido[4,3-d]pyrimidin-2-yl]-methyl-amine hydrochloride] | 300 nM | 180 nM | 9.5 nM | 2 µM
12 |  | Fc1ccc(-c2nc(N3CCCCCC3)nc3c2CCNC3)cc1 [Example 32, 2-Azepan-1-yl-4-(4-fluoro-phenyl)-5,6,7,8-tetrahydro-pyrido[3,4-d]pyrimidine] | 110 nM | 30 nM | 9 nM | 0.27 µM
13 |  | Fc1ccc(-c2nc(N3CCCCC3)nc3c2CNCCC3)cc1 [Example 20, 4-(4-Fluoro-phenyl)-2-piperidin-1-yl-6,7,8,9-tetrahydro-5H-1,3,6-triaza-benzocycloheptene hydrochloride] | 6310 nM | 790 nM | 300 nM | > 10 µM
14 |  | CCN(CC)c1nc2c(c(-c3ccc(Cl)cc3)n1)CNCC2 [Example 46, [4-(4-Chloro-phenyl)-5,6,7,8-tetrahydro-pyrido[4,3-d]pyrimidin-2-yl]-diethyl-amine hydrochloride] | 250 nM | 200 nM | 30 nM | 0.1 µM
15 |  | CCN(CC)c1nc2c(c(-c3ccc(C)cc3)n1)CNCCC2 [Example 16, Diethyl-(4-p-tolyl-6,7,8,9-tetrahydro-5H-1,3,6-triaza-benzocyclohepten-2-yl)-amine] | 630 nM | 320 nM | 50 nM | 0.5 µM
16 |  | N#Cc1ccc(-c2nc(N3CCCCC3)nc3c2CNCCC3)cc1 [Example 22, 4-(2-Piperidin-1-yl-6,7,8,9-tetrahydro-5H-1,3,6-triaza-benzocyclohepten-4-yl)-benzonitrile hydrochloride] | > 10000 nM | 2510 nM | > 10000 nM | > 10 µM
17 |  | Cc1ccc(-c2nc(N3CCCCC3)nc3c2CNCCC3)cc1 [Example 19, 2-Piperidin-1-yl-4-p-tolyl-6,7,8,9-tetrahydro-5H-1,3,6-triaza-benzocycloheptene] | 3160 nM | 1000 nM | 1500 nM | > 10 µM
18 |  | Cc1ccc(-c2nc(N3CCCC3)nc3c2CNCC3)cc1 [Example 47, 2-Pyrrolidin-1-yl-4-p-tolyl-5,6,7,8-tetrahydro-pyrido[4,3-d]pyrimidine] | 1600 nM | 500 nM | 120 nM | > 10 µM
19 |  | CCN(CC)c1nc2c(c(-c3ccc(OC)cc3)n1)CNCCC2 [Example 17, Diethyl-[4-(4-methoxy-phenyl)-6,7,8,9-tetrahydro-5H-1,3,6-triaza-benzocyclohepten-2-yl]-amine] | 2500 nM | 630 nM | 900 nM | > 10 µM
20 |  | CCN(CC)c1nc2c(c(-c3ccc(OC)cc3)n1)CCN(Cc1ccccc1)C2 [Example 27, [7-Benzyl-4-(4-methoxy-phenyl)-5,6,7,8-tetrahydro-pyrido[3,4-d]pyrimidin-2-yl]-diethyl-amine] | > 10000 nM | 660 nM | 1700 nM | > 10 µM
21 |  | Clc1ccc(-c2nc(NCc3ccccc3)nc3c2CCNCC3)cc1 [Example 56, Benzyl-[4-(4-chloro-phenyl)-6,7,8,9-tetrahydro-5H-pyrimido[4,5-d]azepin-2-yl]-amine] | 40 nM | 45 nM | 1.4 nM | 9 µM
22 |  | CCN(CC)c1nc2c(c(-c3ccc(C)cc3)n1)CCN(Cc1ccccc1)C2 [Example 25, (7-Benzyl-4-p-tolyl-5,6,7,8-tetrahydro-pyrido[3,4-d]pyrimidin-2-yl)-diethyl-amine] | > 10000 nM | 620 nM | 190 nM | > 10 µM
23 |  | CCN(CC)c1nc2c(c(-c3ccc(F)cc3)n1)CCN(Cc1ccccc1)C2 [Example 23, [7-Benzyl-4-(4-fluoro-phenyl)-5,6,7,8-tetrahydro-pyrido[3,4-d]pyrimidin-2-yl]-diethyl-amine] | 2800 nM | 350 nM | 60 nM | 0.62 µM
